Ends that are not written are not given here.
Experiments:
[1] = target: T1, FBP21-WW1 (Homo sapiens, UniProt O75554); experiment: Isothermal titration calorimetry (ITC) with FBP21-WW1; type: binding; settings: PBS pH 7.4, 25 °C, protein in cell 250 µM, peptide in syringe 5 mM, GST-tagged FBP21-WW1
T1 construct: with regard to FBP21’s WW domains by ITC; GST (N); made in house; host or cells: E. coli BL21 DE3 (pGEX4T1)
T1 sequence (O75554 122-155 limits assumed): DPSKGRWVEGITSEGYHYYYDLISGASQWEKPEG
Protocol: In order to determine an optimal peptide sequence for a FBP21-tWW ligand, we conducted a phage display experiment for each of the two WW domains. Phages used in these experiments carried a randomized X9-peptide fused to phage coat protein VIII [16]. Enrichment factors were calculated after each selection cycle, and reached a plateau after four panning rounds. Phagemids were isolated and sequenced after the third and fourth panning rounds. The sequences for WW1 and WW2 were overlapping to a large extent, showing their similarity in binding preference. This is expected from evolutionary and binding studies carried out earlier. In agreement with previous findings for this group of WW domains a polyproline stretch and an arginine residue are present in most sequenced clones. […] To define an optimized single monovalent binder, we analyzed the affinities for a selected set of ligands from this panel of sequences with regard to FBP21’s WW domains by ITC under the same conditions as were used for the phage display. […] To further analyze which residues are essential for the interaction, we performed substitution analyses using peptide SPOT arrays (Figure 1D, Supporting Information File 1 Figure S1). The experiment gives some insight into binding specificities. The central role of proline P5 for binding of peptides is evident for both WW domains (Figure 1D, Supporting Information File 1 Figure S1). Proline fulfills two requirements. On the one hand it promotes formation of the PPII helix conformation, on the other hand, it is accommodated well into the hydrophobic groove provided by the individual WW domains. At position P4 proline can be replaced by leucine, a residue well compatible with the PPII helical conformation. Arginine is preferred at position 6 or 9, highlighting the importance of a positive charge in complex formation. […] Possibly, the hybrid resonance of the guanidinium group in the arginine is more important in the case of WW2 compared to WW1. […]
(§1) Isothermal titration calorimetry
(§2) The His6-FBP21-tWW, FBP21-WW1 and FBP21-WW2 were dialyzed against PBS, pH 7.4.
(§3) Peptides were dissolved in PBS and the pH was adjusted to 7.4. hPG-peptide conjugate 2 was dialyzed against Millipore water and the buffer components were adjusted to PBS pH 7.4. The concentration was analyzed for all components by measuring absorbance at 280 nm using a Nanodrop2000 (Thermo Scientific). Extinction coefficients were Ɛ = 5500 M−1cm−1 for WPPPPRVPR and Ɛ = 32430 M−1cm−1 for FBP21-tWW. Accounting for the number of peptides on the scaffold, we calculated an extinction coefficient of Ɛ = 38500 M−1cm−1 for the hPG-peptide conjugate 2. ITC experiments were carried out on a Microcal ITC200 (GE Healthcare).
The parameters were set to: temperature 25 °C, spacing: 120 s (for WW1 and WW2 measurements) or 180 s (for tWW measurements), stirring speed: 1000 rpm, feedback gain: high, Filter: 5 s, DP: 7 µcal/s. In ITC measurements with FBP21 WW1 and WW2, the protein in the cell was concentrated to 250 µM, the peptide in the syringe to 5 mM, injected was 1 × 1 µL, then 15 × 2.5 µL. In ITC measurements with FBP21-tWW and peptide the protein concentration in the cell was 200 µM and the peptide concentration in the syringe 4 mM. […] The data was analyzed with Origin and the Microcal ITC 200 AddOn. […]
FBP21-WW1 and FBP21-WW2 were expressed as a GST-tagged variant from pgex4T1 in E. coli BL21 DE3, FBP21-tWW was expressed from a pET28a-His6-FBP21-tWW plasmid in […]

[2] = target: T2, FBP21-WW2 (Homo sapiens, UniProt O75554); experiment: Isothermal titration calorimetry (ITC) with FBP21-WW2; type: binding; settings: PBS pH 7.4, 25 °C, protein in cell 250 µM, peptide in syringe 5 mM, GST-tagged FBP21-WW2
T2 construct: with regard to FBP21’s WW domains by ITC; GST (N); made in house; host or cells: E. coli BL21 DE3 (pGEX4T1)
T2 sequence (O75554 163-196 limits assumed): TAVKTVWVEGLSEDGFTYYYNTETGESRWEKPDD
Protocol: as §1, §2, §3
The parameters were set to: temperature 25 °C, spacing: 120 s (for WW1 and WW2 measurements) or 180 s (for tWW measurements), stirring speed: 1000 rpm, feedback gain: high, Filter: 5 s, DP: 7 µcal/s. In ITC measurements with FBP21 WW1 and WW2, the protein in the cell was concentrated to 250 µM, the peptide in the syringe to 5 mM, injected was 1 × 1 µL, then 15 × 2.5 µL. In ITC measurements with FBP21-tWW and peptide the protein concentration in the cell was 200 µM and the peptide concentration in the syringe 4 mM. In ITC measurements with FBP21-tWW and the hPG-peptide conjugate 2, the concentration of 2 in the cell was 90 µM and FBP21-tWW in the syringe 1.4 mM. Injected was 1 × 1 µL, then 19 × 2 µL. The data was analyzed with Origin and the Microcal ITC 200 AddOn. To obtain the stoichiometry (N) and the […]
particles and grown overnight at 30 °C, 250 rpm. The bacteria were pelleted; Phages were precipitated from the supernatant using 20% PEG, 2.5 M NaCl. The precipitated phages were pelleted and washed before resuspension in PBS/30% glycerol.
Protein expression and purification
FBP21-WW1 and FBP21-WW2 were expressed as a GST-tagged variant from pgex4T1 in E. coli BL21 DE3, FBP21-tWW was expressed from a pET28a-His6-FBP21-tWW plasmid in E. coli BL21 DE3 as described previously. Proteins were purified by the corresponding affinity matrices and applied to a HiLoad S75 Superdex 16/60 column in 1 × PBS, pH 7.4.
Proteins were concentrated by Centrifugal Filter Units (regenerated cellulose, 3000 MWCO, […]
SPOT analyses were performed as described. Membranes were blocked with 5% BSA in PBS, washed and incubated with GST, GST-WW1 or GST-WW2 at a concentration of 7.5 µg/mL (GST) or 10 µg/mL (GST-WW1, GST-WW2) respectively overnight at 4 °C. After washing, the spot arrays were incubated with a primary anti-GST antibody (Santa Cruz, GST-Z5, sc-459, 1:1000) for one hour at room temperature in blocking buffer, washed again and incubated for one hour with a secondary anti-rabbit antibody (goat anti-rabbit, Santa Cruz, sc-2004, 1:10000) at room temperature in blocking buffer. The peptide spot arrays were developed with HRP juice purchased from pjk GmbH on an Intas Advanced Fluorescence and ECL imager.
Synthesis of hPG-peptide conjugate 2
The peptide carboxylic acid, i.e., Ac-WPPPPRVPRGSG-COOH (0.0067 mmol, 9 mg), was dissolved in 2 mL dry DMF and cooled down to 0 °C using an ice bath under argon atmosphere.
To the cooled solution, N-hydroxysuccinimide (0.013 mmol, 1.54 mg) and DCC (0.013 mmol, 2.76 mg) were added. The ice bath was removed and the reaction mixture was allowed to stir at room temperature overnight. […]

[3] = target: T3, FBP21-tWW (Homo sapiens, UniProt O75554); experiment: Isothermal titration calorimetry (ITC) with FBP21-tWW; type: binding; settings: PBS pH 7.4, 25 °C
T3 construct: made in house; host or cells: E. coli BL21 DE3 (pET28a)
T3 sequence (O75554 122-196 limits assumed): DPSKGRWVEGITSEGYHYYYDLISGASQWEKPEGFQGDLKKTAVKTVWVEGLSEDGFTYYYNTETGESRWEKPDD
Protocol: ITC measurements were performed to analyze the dissociation constant KD of the interaction between FBP21-tWW and hPG-peptide conjugate 2 in PBS, pH 7.4 (Figure 2A). To compare the KD values we also analyzed the binding between FBP21-tWW and the monovalent peptide ligand Ac-WPPPPRVPRGSG-COOH (Figure 2B). […] However, when considering that ≈7 peptides are bound per nanoparticle, the actual multivalency effect is small.
Gel permeation chromatography (GPC)
Molecular weight distribution of hPG-OH core was determined by means of GPC coupled to a refractive index detector (RI) obtaining the complete distribution (Mn, Mp, Mw, dispersity).
Measurements were carried out under highly diluted conditions (5 mg/mL) from a GPC consisting of an Agilent 1100 solvent delivery system with pump, manual injector, and an Agilent differential refractometer. Three 30 cm columns (PPS: Polymer Standards Service GmbH, Germany; Suprema 100 Å, 1000 Å, 3000 Å with 5 and 10 μm particle size) were used to separate aqueous polymer samples using water with 0.1 M NaNO3 as the mobile phase at a flow rate of 1 mL/min. The columns were operated at room temperature with the RI detector at 50 °C. […]
as §3, with “Extinction coefficients were Ɛ = 5500 M−1cm−1 for WPPPPRVPR and Ɛ = 32430 M−1cm−1 for FBP21-tWW.” left out, “ITC experiments were carried out on a Microcal ITC200 (GE Healthcare).” left out
The parameters were set to: temperature 25 °C, spacing: 120 s (for WW1 and WW2 measurements) or 180 s (for tWW measurements), stirring speed: 1000 rpm, feedback gain: high, Filter: 5 s, DP: 7 µcal/s. […] The data was analyzed with Origin and the Microcal ITC 200 AddOn. […]
FBP21-WW1 and FBP21-WW2 were expressed as a GST-tagged variant from pgex4T1 in E. coli BL21 DE3, FBP21-tWW was expressed from a pET28a-His6-FBP21-tWW plasmid in E. coli BL21 DE3 as described previously. […]

[4] = target: T4, WPPPPRVPR peptide; experiment: ITC
T4 chain: WPPPPRVPR

[5] = target: T5, hPG-peptide conjugate 2 (also: multivalent conjugation to hyperbranched polyglycerol amine (about 7 peptides per polymer), site not given here); experiment: ITC
T5 chain: Ac-WPPPPRVPRGSG

[6] = target: T6, Ac-WPPPPRVPRGSG-COOH; experiment: ITC
T6 chain: Ac-WPPPPRVPRGSG-OH

YPRPTNPRP [YPRPTNPRP]
Kd [1]: 490 ± 54 µM | Kd [2]: 270 ± 24 µM

Ac-WPPPPRVPR [WPPPPRVPR]
Kd [1]: 155 ± 18 µM | Kd [2]: 87 ± 3.4 µM

RPPPPHFPQ
WW1 KD [1]: could not be confirmed as a binder | WW2 KD [2]: could not be confirmed as a binder

RPPCGYPLP
WW1 KD [1]: did not show any binding | WW2 KD [2]: did not show any binding

Ac-WPPPPRVPRGSG [Ac-WPPPPRVPRGSG-COOH]
entropy loss upon interaction ([3]; FBP21-tWW): −19.5 cal/mol/deg | stoichiometric factor derived from the fit (N) ([3]; FBP21-tWW): 1.29 ± 0.0257 | Kd ([3]; His6-FBP21-tWW, peptide: protein in cell 200 µM, peptide in syringe 4 mM, conjugate 2: 90 µM in cell, FBP21-tWW 1.4 mM in syringe, read-out: KD of the interaction with FBP21-tWW): 150 ± 6 µM

YPRPPGPPP [YPRPPGPPP]
Kd [1]: 452 ± 45 µM | Kd [2]: 68.5 ± 6.9 µM

B1: FBP21 WW2 WW2 (peptide)
chain: LKKTAVKTVWVEGLSEDGFTYYYNTETGESRWEKPDDFIP
Kd [4]: 87 µM

B2: FBP21-tWW WW1-WW2 (protein)
chain: DPSKGRWVEGITSEGYHYYYDLISGASQWEKPEGFQGDLKKTAVKTVWVEGLSEDGFTYYYNTETGESRWEKPDD
Kd [5]: 17.6 µM | Kd [6]: 150 µM

B3: FBP21 WW1 WW1 (peptide)
chain: RKKDPSKGRWVEGITSEGYHYYYDLISGASQWEKPEGFQG
Kd [4]: 155 µM

From PMC4464085, “Exploring monovalent and multivalent peptides for the inhibition of FBP21-tWW” (Beilstein Journal of Organic Chemistry, 2015)
